Test results published in PubChem BioAssay (NCI).
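Cells were grown in 96-well plates and exposed to each compound for 48 hours at five concentrations; endpoints were interpolated linearly between bracketing concentrations, or set to the highest concentration if not reached. Abbreviation: GI50, concentration required for 50% inhibition of growth. The concentration for full growth arrest is given as TGI.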

Experiments:
Experiment in all cases: growth of human tumour cells (NCI), 48 h; in the data active means GI50 below about 0.43 µM; inactive means the rest
786-0 renal = system: 786-0 renal
A498 renal = system: A498 renal
A549 NSCLC = system: A549 NSCLC
ACHN renal = system: ACHN renal
BT-549 breast = system: BT-549 breast
CAKI-1 renal = system: CAKI-1 renal
CCRF-CEM leukemia = system: CCRF-CEM leukemia
COLO 205 colon = system: COLO 205 colon
DU-145 prostate = system: DU-145 prostate
HCC-2998 colon = system: HCC-2998 colon
HCT-116 colon = system: HCT-116 colon
HCT-15 colon = system: HCT-15 colon
HL-60(TB) leukemia = system: HL-60(TB) leukemia
HOP-62 NSCLC = system: HOP-62 NSCLC
HOP-92 NSCLC = system: HOP-92 NSCLC
HS 578T breast = system: HS 578T breast
HT29 colon = system: HT29 colon
IGROV1 ovarian = system: IGROV1 ovarian
K-562 leukemia = system: K-562 leukemia
KM12 colon = system: KM12 colon
LOX IMVI melanoma = system: LOX IMVI melanoma
M14 melanoma = system: M14 melanoma
MALME-3M melanoma = system: MALME-3M melanoma
MCF7 breast = system: MCF7 breast
MDA-MB-231 breast = system: MDA-MB-231 breast
MDA-MB-435 = system: MDA-MB-435
MOLT-4 leukemia = system: MOLT-4 leukemia
NCI-H226 lung = system: NCI-H226 lung
NCI-H23 lung = system: NCI-H23 lung
NCI-H460 lung = system: NCI-H460 lung
NCI-H522 lung = system: NCI-H522 lung
NCI/ADR-RES ovarian = system: NCI/ADR-RES ovarian
OVCAR-3 ovarian = system: OVCAR-3 ovarian
OVCAR-4 ovarian = system: OVCAR-4 ovarian
OVCAR-5 ovarian = system: OVCAR-5 ovarian
OVCAR-8 ovarian = system: OVCAR-8 ovarian
PC-3 prostate = system: PC-3 prostate
RPMI-8226 leukemia = system: RPMI-8226 leukemia
RXF 393 renal = system: RXF 393 renal
SF-268 CNS = system: SF-268 CNS
SF-295 CNS = system: SF-295 CNS
SF-539 CNS = system: SF-539 CNS
SK-MEL-2 melanoma = system: SK-MEL-2 melanoma
SK-MEL-28 melanoma = system: SK-MEL-28 melanoma
SK-MEL-5 melanoma = system: SK-MEL-5 melanoma
SK-OV-3 ovarian = system: SK-OV-3 ovarian
SN12C renal = system: SN12C renal
SNB-19 CNS = system: SNB-19 CNS
SNB-75 CNS = system: SNB-75 CNS
SR leukemia = system: SR leukemia
SW-620 colon = system: SW-620 colon
T-47D breast = system: T-47D breast
TK-10 renal = system: TK-10 renal
U251 CNS = system: U251 CNS
UACC-257 melanoma = system: UACC-257 melanoma
UACC-62 melanoma = system: UACC-62 melanoma
UO-31 renal = system: UO-31 renal
EKVX NSCLC = system: EKVX NSCLC

CC(C)C[C@H](NC(=O)Cn1ccc(NCc2ccccc2)cc1=O)B(O)O
19.8 µM: TGI (MDA-MB-231 breast)
> 100 µM: TGI (A549 NSCLC) | TGI (ACHN renal) | TGI (CCRF-CEM leukemia) | TGI (COLO 205 colon) | TGI (DU-145 prostate) | TGI (K-562 leukemia) | TGI (MCF7 breast) | TGI (NCI-H23 lung) | TGI (NCI/ADR-RES ovarian) | TGI (OVCAR-4 ovarian) | TGI (OVCAR-5 ovarian) | TGI (OVCAR-8 ovarian) | TGI (SK-OV-3 ovarian) | TGI (SNB-19 CNS) | TGI (U251 CNS)
1.13 µM: TGI (SF-539 CNS)
> 41.6 µM: TGI (HCT-15 colon)
8.35 µM: TGI (HOP-92 NSCLC)
47 µM: TGI (SK-MEL-28 melanoma)
29.5 µM: TGI (HOP-62 NSCLC)
85.3 µM: TGI (HS 578T breast)
14.5 µM: TGI (SR leukemia)
7.08 µM: TGI (M14 melanoma)
9.72 µM: TGI (SNB-75 CNS)
98.9 µM: TGI (PC-3 prostate)
2.89 µM: TGI (SK-MEL-5 melanoma)
54.8 µM: TGI (SN12C renal)
inactive: GI50 (786-0 renal) 2.02 µM | GI50 (A549 NSCLC) 5.15 µM | GI50 (ACHN renal) 0.427 µM | GI50 (BT-549 breast) 0.431 µM | GI50 (CAKI-1 renal) 0.499 µM | GI50 (CCRF-CEM leukemia) 0.511 µM | GI50 (COLO 205 colon) 2.48 µM | GI50 (DU-145 prostate) 5.48 µM | GI50 (HCC-2998 colon) 2.21 µM | GI50 (HCT-116 colon) 0.576 µM | GI50 (HCT-15 colon) 2.62 µM | GI50 (HL-60(TB) leukemia) 0.439 µM | GI50 (HOP-62 NSCLC) 4.86 µM | GI50 (HOP-92 NSCLC) 2.39 µM | GI50 (HS 578T breast) 3.33 µM | GI50 (HT29 colon) 0.814 µM | GI50 (IGROV1 ovarian) 8.05 µM | GI50 (K-562 leukemia) 3.48 µM | GI50 (KM12 colon) 3.62 µM | GI50 (LOX IMVI melanoma) 0.606 µM | GI50 (M14 melanoma) 1.35 µM | GI50 (MALME-3M melanoma) 2.22 µM | GI50 (MDA-MB-231 breast) 3.18 µM | GI50 (NCI-H226 lung) 1.19 µM | GI50 (NCI-H23 lung) 5.01 µM | GI50 (NCI-H460 lung) 6.19 µM | GI50 (NCI-H522 lung) 0.691 µM | GI50 (NCI/ADR-RES ovarian) 17.8 µM | GI50 (OVCAR-3 ovarian) 0.537 µM | GI50 (OVCAR-4 ovarian) 4.59 µM | GI50 (OVCAR-5 ovarian) 5.29 µM | GI50 (OVCAR-8 ovarian) 4.69 µM | GI50 (PC-3 prostate) 5.86 µM | GI50 (SF-268 CNS) 3.57 µM | GI50 (SF-295 CNS) 2.62 µM | GI50 (SK-MEL-2 melanoma) 1.85 µM | GI50 (SK-MEL-28 melanoma) 0.6 µM | GI50 (SK-MEL-5 melanoma) 0.678 µM | GI50 (SK-OV-3 ovarian) 13.7 µM | GI50 (SN12C renal) 3.71 µM | GI50 (SNB-19 CNS) 4.96 µM | GI50 (SNB-75 CNS) 2.33 µM | GI50 (SW-620 colon) 0.557 µM | GI50 (T-47D breast) 0.785 µM | GI50 (TK-10 renal) 0.472 µM | GI50 (U251 CNS) 6.3 µM | GI50 (UACC-257 melanoma) 0.961 µM | GI50 (UACC-62 melanoma) 1.6 µM | GI50 (UO-31 renal) 1.21 µM
12.8 µM: TGI (CAKI-1 renal)
3.08 µM: TGI (NCI-H522 lung)
11.1 µM: TGI (UACC-62 melanoma)
1.59 µM: TGI (A498 renal)
54.7 µM: TGI (IGROV1 ovarian)
3.66 µM: TGI (HCT-116 colon)
3.12 µM: TGI (OVCAR-3 ovarian)
27.5 µM: TGI (SF-268 CNS)
5.73 µM: TGI (HCC-2998 colon)
12.4 µM: TGI (T-47D breast)
14.8 µM: TGI (SK-MEL-2 melanoma)
active: GI50 (A498 renal) 0.234 µM | GI50 (MCF7 breast) 0.413 µM | GI50 (MDA-MB-435) 0.335 µM | GI50 (MOLT-4 leukemia) 0.319 µM | GI50 (RPMI-8226 leukemia) 0.304 µM | GI50 (RXF 393 renal) 0.346 µM | GI50 (SF-539 CNS) 0.296 µM | GI50 (SR leukemia) 0.281 µM
2.59 µM: TGI (BT-549 breast)
8.41 µM: TGI (HT29 colon)
5.23 µM: TGI (TK-10 renal)
5.84 µM: TGI (NCI-H226 lung)
> 28.6 µM: TGI (SW-620 colon)
15.3 µM: TGI (SF-295 CNS)
> 40.1 µM: TGI (786-0 renal)
10.6 µM: TGI (UO-31 renal)
10.7 µM: TGI (HL-60(TB) leukemia)
4.73 µM: TGI (UACC-257 melanoma)
> 30 µM: TGI (MALME-3M melanoma)
1.31 µM: TGI (RXF 393 renal)
1.29 µM: TGI (MDA-MB-435)
37.6 µM: TGI (NCI-H460 lung)
2.31 µM: TGI (LOX IMVI melanoma)
17.1 µM: TGI (KM12 colon)

COC(=O)c1cc2c3ccccc3n3c(=O)c4cc5ccccc5nc4c(n1)c23
> 100 µM: TGI (786-0 renal) | TGI (A498 renal) | TGI (A549 NSCLC) | TGI (ACHN renal) | TGI (BT-549 breast) | TGI (CAKI-1 renal) | TGI (CCRF-CEM leukemia) | TGI (COLO 205 colon) | TGI (DU-145 prostate) | TGI (EKVX NSCLC) | TGI (HCC-2998 colon) | TGI (HCT-116 colon) | TGI (HCT-15 colon) | TGI (HL-60(TB) leukemia) | TGI (HOP-92 NSCLC) | TGI (HS 578T breast) | TGI (HT29 colon) | TGI (IGROV1 ovarian) | TGI (K-562 leukemia) | TGI (KM12 colon) | TGI (LOX IMVI melanoma) | TGI (M14 melanoma) | TGI (MALME-3M melanoma) | TGI (MCF7 breast) | TGI (MDA-MB-231 breast) | TGI (MDA-MB-435) | TGI (MOLT-4 leukemia) | TGI (NCI-H226 lung) | TGI (NCI-H23 lung) | TGI (NCI-H460 lung) | TGI (NCI-H522 lung) | TGI (NCI/ADR-RES ovarian) | TGI (OVCAR-3 ovarian) | TGI (OVCAR-4 ovarian) | TGI (OVCAR-5 ovarian) | TGI (OVCAR-8 ovarian) | TGI (PC-3 prostate) | TGI (RXF 393 renal) | TGI (SF-268 CNS) | TGI (SF-295 CNS) | TGI (SF-539 CNS) | TGI (SK-MEL-2 melanoma) | TGI (SK-MEL-28 melanoma) | TGI (SK-MEL-5 melanoma) | TGI (SK-OV-3 ovarian) | TGI (SN12C renal) | TGI (SNB-19 CNS) | TGI (SNB-75 CNS) | TGI (SR leukemia) | TGI (SW-620 colon) | TGI (T-47D breast) | TGI (TK-10 renal) | TGI (U251 CNS) | TGI (UACC-257 melanoma) | TGI (UACC-62 melanoma) | TGI (UO-31 renal)
inactive: GI50 (786-0 renal) > 100 µM | GI50 (A498 renal) > 100 µM | GI50 (A549 NSCLC) > 100 µM | GI50 (ACHN renal) > 100 µM | GI50 (BT-549 breast) > 100 µM | GI50 (CAKI-1 renal) > 100 µM | GI50 (CCRF-CEM leukemia) > 100 µM | GI50 (COLO 205 colon) > 100 µM | GI50 (DU-145 prostate) > 100 µM | GI50 (EKVX NSCLC) > 100 µM | GI50 (HCC-2998 colon) > 100 µM | GI50 (HCT-116 colon) > 100 µM | GI50 (HCT-15 colon) > 100 µM | GI50 (HL-60(TB) leukemia) > 100 µM | GI50 (HOP-92 NSCLC) > 100 µM | GI50 (HS 578T breast) > 100 µM | GI50 (HT29 colon) > 100 µM | GI50 (IGROV1 ovarian) > 100 µM | GI50 (K-562 leukemia) > 100 µM | GI50 (KM12 colon) > 100 µM | GI50 (LOX IMVI melanoma) > 100 µM | GI50 (M14 melanoma) > 100 µM | GI50 (MALME-3M melanoma) > 100 µM | GI50 (MCF7 breast) > 100 µM | GI50 (MDA-MB-231 breast) > 100 µM | GI50 (MDA-MB-435) > 100 µM | GI50 (MOLT-4 leukemia) > 100 µM | GI50 (NCI-H226 lung) > 100 µM | GI50 (NCI-H23 lung) > 100 µM | GI50 (NCI-H460 lung) > 100 µM | GI50 (NCI-H522 lung) > 100 µM | GI50 (NCI/ADR-RES ovarian) > 100 µM | GI50 (OVCAR-3 ovarian) > 100 µM | GI50 (OVCAR-4 ovarian) > 100 µM | GI50 (OVCAR-5 ovarian) > 100 µM | GI50 (OVCAR-8 ovarian) > 100 µM | GI50 (PC-3 prostate) > 100 µM | GI50 (RXF 393 renal) > 100 µM | GI50 (SF-268 CNS) > 100 µM | GI50 (SF-295 CNS) > 100 µM | GI50 (SF-539 CNS) > 100 µM | GI50 (SK-MEL-2 melanoma) > 100 µM | GI50 (SK-MEL-28 melanoma) > 100 µM | GI50 (SK-MEL-5 melanoma) > 100 µM | GI50 (SK-OV-3 ovarian) > 100 µM | GI50 (SN12C renal) > 100 µM | GI50 (SNB-19 CNS) > 100 µM | GI50 (SNB-75 CNS) > 100 µM | GI50 (SR leukemia) > 100 µM | GI50 (SW-620 colon) > 100 µM | GI50 (T-47D breast) > 100 µM | GI50 (TK-10 renal) > 100 µM | GI50 (U251 CNS) > 100 µM | GI50 (UACC-257 melanoma) > 100 µM | GI50 (UACC-62 melanoma) > 100 µM | GI50 (UO-31 renal) > 100 µM
